What all share (assay type): cell-based
One experiment concerns H1975 cells. In words: In vitro tumor cell proliferation assay (Cell Titer-Glo) in H1975 cells. The settings on record: NCI-H1975; H1975 human NSCLC expressing mutant HER1 (L858R,T790M); 72 hours exposure; read-out: IC50, activities in H 1975 cell lines. A digest of the protocol: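 After 72 h compound exposure at 37° C (top 10 uM down to 64 pM, 0.1% DMSO), viability of EGFR L858R/T790M-mutant H1975 cells was read as ATP luminescence.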

The next experiment deals with N87. In words: In vitro tumor cell proliferation assay (Cell Titer-Glo) in N87 cells. The settings on record: N87 human gastric carcinoma overexpressing HER2 and HER1; 72 hours exposure; read-out: IC50, activities in N87 cell lines. The essentials: (§1)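 Viability after 72 h drug exposure at 37 °C was read as CellTiter-Glo ATP luminescence, giving IC50. Cells (2.5×10^3/well, RPMI + 10% FBS) were compound-treated one day post-seeding, 0.1% DMSO final: A431 overexpresses HER1, N87 overexpresses HER2 and HER1.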

For another experiment, the system named is A431 cells. In words: In vitro tumor cell proliferation assay (Cell Titer-Glo) in A431 cells. The settings on record: Homo sapiens, A-431, 72 h, A431 human epidermoid carcinoma overexpressing HER1; 72 hours exposure; read-out: IC50, activities in A431 cell lines. The essentials: as §1

Take `O=C(/C=C/CN1CCCC1)N1CCc2c(sc3ncnc(Nc4cccc(Br)c4)c23)C1` [Example 194, N-(3-bromophenyl)-7-[(2E)-4-pyrrolidin-1-ylbut-2-enoyl]-5,6,7,8-tetrahydropyrido [4′,3′:4,5]thieno[2,3-d]pyrimidin-4-amine]: the IC50 with H1975 cells, in the experiment with N87 and in the experiment on A431 cells was below 200 nM each time.
On to `O=C(/C=C/CN1CCCCC1)N1CCc2c(sc3ncnc(Nc4ccc(Cl)c(Cl)c4)c23)C1` [Example 195, N-(3,4-dichlorophenyl)-7-[(2E)-4-piperidin-1-ylbut-2-enoyl]-5,6,7,8-tetrahydropyrido [4′,3′:4,5]thieno[2,3-d]pyrimidin-4-amine], for which the IC50 in the experiment on H1975 cells, in the experiment with N87 and with A431 cells was below 200 nM in each case.
On to `O=C(/C=C/CN1CCCCC1)N1CCc2c(sc3ncnc(Nc4cccc(Br)c4)c23)C1` [Example 196, N-(3-bromophenyl)-7-[(2E)-4-piperidin-1-ylbut-2-enoyl]-5,6,7,8-tetrahydropyrido [4′,3′:4,5]thieno[2,3-d]pyrimidin-4-amine], for which the IC50 in the experiment on H1975 cells was 200 to 1000 nM; in the experiment with N87, below 200 nM; in the experiment with A431 cells, below 200 nM.
`CCN(CC)C/C=C/C(=O)N1CCc2c(sc3ncnc(Nc4cccc(Br)c4)c23)C1` [Example 197, N-(3-bromophenyl)-7-[(2E)-4-(diethylamino)but-2-enoyl]-5,6,7,8-tetrahydropyrido [4′,3′:4,5]thieno[2,3-d]pyrimidin-4-amine]: the IC50 with H1975 cells is 200 to 1000 nM; in the experiment with N87, below 200 nM; in the experiment with A431 cells, below 200 nM.
`CN(C/C=C/C(=O)N1CCc2c(sc3ncnc(Nc4cccc(Br)c4)c23)C1)C(C)(C)C` [Example 198, N-(3-bromophenyl)-7-{(2E)-4-[tert-butyl(methyl)amino]but-2-enoyl}-5,6,7,8-tetrahydropyrido [4′,3′:4,5]thieno[2,3-d]pyrimidin-4-amine]: the results for the IC50 in the experiment on H1975 cells, in the experiment with N87 and with A431 cells were 200 to 1000 nM, below 200 nM and below 200 nM, respectively.
On to `CN(C/C=C/C(=O)N1CCc2c(sc3ncnc(Nc4ccc(Cl)c(Cl)c4)c23)C1)C(C)(C)C` [Example 199, 7-{(2E)-4-[tert-butyl(methyl)amino]but-2-enoyl}-N-(3,4-dichlorophenyl)-5,6,7,8-tetrahydropyrido [4′,3′:4,5]thieno[2,3-d]pyrimidin-4-amine], for which the IC50 in the experiment on H1975 cells, in the experiment on N87 and in the experiment on A431 cells was below 200 nM in each case.
Turning to `CCN(C/C=C/C(=O)N1CCc2c(sc3ncnc(Nc4ccc(Cl)c(Cl)c4)c23)C1)C1CCCCC1` [Example 200, 7-{(2E)-4-[cyclohexyl(ethyl)amino]but-2-enoyl}-N-(3,4-dichlorophenyl)-5,6,7,8-tetrahydropyrido [4′,3′:4,5]thieno[2,3-d]pyrimidin-4-amine], the IC50 with H1975 cells was 200 to 1000 nM; in the experiment with N87, below 200 nM; in the experiment with A431 cells, 200 to 1000 nM.
In the case of `CCN(C/C=C/C(=O)N1CCc2c(sc3ncnc(Nc4cccc(Br)c4)c23)C1)C1CCCCC1` [Example 201, N-(3-bromophenyl)-7-{(2E)-4-[cyclohexyl(ethyl)amino]but-2-enoyl}-5,6,7,8-tetrahydropyrido [4′,3′:4,5]thieno[2,3-d]pyrimidin-4-amine], the IC50 in the experiment with H1975 cells is 200 to 1000 nM; in the experiment on N87 it was below 200 nM; in the experiment on A431 cells, 200 to 1000 nM.
For `CN(C/C=C/C(=O)N1CCc2c(sc3ncnc(Nc4cccc(Br)c4)c23)C1)C1CCCCC1` [Example 202, N-(3-bromophenyl)-7-{(2E)-4-[cyclohexyl(methyl)amino]but-2-enoyl}-5,6,7,8-tetrahydropyrido [4′,3′:4,5]thieno[2,3-d]pyrimidin-4-amine], the IC50 with H1975 cells was 200 to 1000 nM; in the experiment on N87, below 200 nM; in the experiment with A431 cells, 200 to 1000 nM.
For the compound `CN(C/C=C/C(=O)N1CCc2c(sc3ncnc(Nc4ccc(Cl)c(Cl)c4)c23)C1)C1CCCCC1` [Example 203, 7-{(2E)-4-[cyclohexyl(methyl)amino]but-2-enoyl}-N-(3,4-dichlorophenyl)-5,6,7,8-tetrahydropyrido [4′,3′:4,5]thieno[2,3-d]pyrimidin-4-amine], the results for the IC50 in the experiment on H1975 cells, in the experiment with N87 and in the experiment on A431 cells were 1000 to 10000 nM, below 200 nM and 200 to 1000 nM, respectively.
In the same order, the values of `CCN(C/C=C/C(=O)N1CCc2c(sc3ncnc(Nc4cccc(Br)c4)c23)C1)C(C)C` [Example 204, N-(3-bromophenyl)-7-{(2E)-4-[ethyl(isopropyl)amino]but-2-enoyl}-5,6,7,8-tetrahydropyrido [4′,3′:4,5]thieno[2,3-d]pyrimidin-4-amine] are 200 to 1000 nM, below 200 nM and 200 to 1000 nM.
In the same order, the values of `CCN(C/C=C/C(=O)N1CCc2c(sc3ncnc(Nc4ccc(Cl)c(Cl)c4)c23)C1)C(C)C` [Example 205, N-(3,4-dichlorophenyl)-7-{(2E)-4-[ethyl(isopropyl)amino]but-2-enoyl}-5,6,7,8-tetrahydropyrido [4′,3′:4,5]thieno[2,3-d]pyrimidin-4-amine] are below 200 nM, below 200 nM and below 200 nM.
For `CC1CCCN1C/C=C/C(=O)N1CCc2c(sc3ncnc(Nc4cccc(Br)c4)c23)C1` (stereo not drawn) [Example 207, N-(3-bromophenyl)-7-[(2E)-4-(2-methylpyrrolidin-1-yl)but-2-enoyl]-5,6,7,8-tetrahydropyrido [4′,3′:4,5]thieno[2,3-d]pyrimidin-4-amine], the values for the concentration for half-maximal inhibition (IC50) with H1975 cells, in the experiment on N87 and in the experiment on A431 cells were 200 to 1000 nM, below 200 nM and 200 to 1000 nM, respectively.
For the compound `CC(C)N(C/C=C/C(=O)N1CCc2c(sc3ncnc(Nc4cccc(Br)c4)c23)C1)C(C)C` [Example 208, N-(3-bromophenyl)-7-[(2E)-4-(diisopropylamino)but-2-enoyl]-5,6,7,8-tetrahydropyrido [4′,3:4,5]thieno[2,3-d]pyrimidin-4-amine], the IC50 is 200 to 1000 nM in the experiment on H1975 cells, below 200 nM with N87 and 200 to 1000 nM in the experiment with A431 cells.
In the case of `CC(C)N(C/C=C/C(=O)N1CCc2c(sc3ncnc(Nc4ccc(Cl)c(Cl)c4)c23)C1)C(C)C` [Example 209, N-(3,4-dichlorophenyl)-7-[(2E)-4-(diisopropylamino)but-2-enoyl]-5,6,7,8-tetrahydropyrido [4′,3′:4,5]thieno[2,3-d]pyrimidin-4-amine], the results for the IC50 in the experiment with H1975 cells, with N87 and in the experiment on A431 cells were 200 to 1000 nM, below 200 nM and 200 to 1000 nM, respectively.

The values are drawn from patent publication US8501755B2, “Tetrahydropyridothienopyrimidine compounds and methods of use thereof” (Bayer Intellectual Property GmbH, priority 2006, dated 2013).
